Test: In vitro release of Tacrolimus from plug samples into releasing medium buffer (PBS + BAK + Triton) at 37 degrees Celsius, HPLC-MS-MS
Format: physicochemical
Settings: implants contain approximately 900 micrograms of TAC
Experimental: In an example of an embodiment of the composition of the present invention, plug samples containing Tacrolimus were prepared. Samples were incubated at 37 degrees Celsius for varying times to determine time effect on Tacrolimus release profile from the sample into a polar solution (PBS).
The solution included the following: 0.01M PBS, 0.005% BAK, and 0.1% TRITON X-100.
Composite weight 3 mg with 30% Tacrolimus.
Development of HPLC-MS-MS Method for Tacrolimus (TCM)
Table 2 provides a list of samples used in the sustained release profile and cumulative sustained release profile illustrated in FIGS. 4 and 5, respectively. Samples 19-1 to 19-8 are Type A, COM TAC 1. Samples 19-9 to 19-16 are Type A, COM TAC 2. Samples 19-17 to 19-24 are Type B, EPO TAC 1. Samples 19-25 to 19-32 are Type B, EPO TAC 2.

TAC average release in vitro (first 3 months): about 1.7 μg/day
TAC release in vitro (first month): 2 µg/day
TAC steady state release in vitro (following 2-3 months): 1.5 µg/day
estimated duration of release in vitro: 6 months
Structure (SMILES): C=CC[C@@H]1/C=C(\C)C[C@H](C)C[C@H](OC)[C@H]2O[C@@](O)(C(=O)C(=O)N3CCCC[C@H]3C(=O)O[C@H](/C(C)=C/[C@@H]3CC[C@@H](O)[C@H](OC)C3)[C@H](C)[C@@H](O)CC1=O)[C@H](C)C[C@@H]2OC [TAC, (3S,4R,5S,8R,9E,12S,14S,15R,16S,18R,19R,26aS)-5,19-dihydroxy-3-{(1E)-1-[(1R,3R,4R)-4-hydroxy-3-methoxycyclohexyl]prop-1-en-2-yl}-14,16-dimethoxy-4,10,12,18-tetramethyl-8-(prop-2-en-1-yl)-5,6,8,11,12,13,14,15,16,17,18,19,24,25,26,26a-hexadecahydro-3H-15,19-epoxypyrido[2,1-c][1,4]oxazacyclotricosine-1,7,20,21(4H,23H)-tetrone]

From US20200147055A1, “COMPOSITIONS AND METHODS FOR TREATING DRY EYE SYNDROME DELIVERING ANTIBIOTIC MACROLIDE” (Eximore Ltd., priority 2017, published 2020)
